Measured values from PMC9216541, “Design and synthesis of Nrf2-derived hydrocarbon stapled peptides for the disruption of protein-DNA-interactions” (PLoS ONE, 2022).
Values belong to the compound of their own block, whether it stands above or below them. Where a SMILES comes first, the peptide text is derived from it. Bridges are numbered along the chain shown (N, C = ends). [ ]: non-standard residue; d: D form. The star is where a group is joined. FITC = O=C1OC2(c3ccc(O)cc3Oc3cc(O)ccc32)c2ccc(NC(=S)*)cc21; R8 = C=CCCCCCC[C@@](C)(N)C(=O)O; R5 = C=CCCC[C@@](C)(N)C(=O)O; S5 = C=CCCC[C@](C)(N)C(=O)O; GABA = NCCCC(=O)O

Legend:
living HeLa cells = test: Cell permeability in living HeLa cells, fluorescence microscopy; type: cell-based
Method: (§1) HeLa cells (ATCC CCL-2) were cultured in Dulbecco’s Modified Eagle Medium (DMEM) supplemented with 10% FBS (Pan Biotech), 2 mM L-glutamine, 100 U/ml penicillin and 100 μg/ml streptomycin at 37°C and 5% CO2.
To investigate the cell permeability of peptide 4, living HeLa cells were washed twice and incubated for 5 min with DPBS + Mg/Ca, ([…]) in a CO2 incubator. Cells were subsequently incubated in the presence of 10 μM of peptide 4 in DPBS + Mg/Cl for 5 min, followed by two washes with DPBS + Mg/Cl and final addition of HEPES-buffered imaging medium containing 0.5 μM propidium iodide.
(§2) Imaging was performed using an Olympus IX81 microscope with 20x and 60x UPLSAPO objectives and standard fluorescence filter sets.

[1] = CD measurements, helical fraction from ellipticity at 222 nm; type: physicochemical; conditions: peptide 20 μM in water, calculated from [θ]obs at 222 nm by established methods (ref 30)
Method: CD measurements were carried out on a JASCO J-715 spectrometer using water as the solvent for all measurements. The peptides were solved in water to a concentration of 20 μM. The linear peptide 5 was used as a control compound. The helical fraction for peptides 1–5 was calculated from the observed ellipticity [θ]obs at 222 nm using established methods.

[2] = target: 6FAM-labeled MARE23 sequence (Nrf2:sMaf binding dsDNA); test: Fluorescence polarization assay with 6FAM-labeled MARE23 dsDNA; conditions: FP, 10 nM 6FAM-MARE23 dsDNA, peptide 25 μM - 6.1 nM, 50 mM Tris/HCl pH 7.5, 100 mM NaCl, 60 min at room temperature; quadruplicates, three independent replicates, four parameter logistic fit
Method: For DNA hybridization, equimolar amounts of fluorescein- or 6FAM-labeled sense and unlabeled antisense oligonucleotides were mixed in 1X annealing buffer (10 mM Tris pH 7.5, 100 mM NaCl, 1 mM EDTA) to yield a final concentration of 20 μM of dsDNA. Subsequently, mixtures were heated to 95°C for 10 min followed by cooling to 20°C at a rate of 1°C per minute. Afterwards, dsDNA probes were diluted to 10 nm in FP assay buffer (50 mM Tris/HCl pH 7.5, 100 mM NaCl, 2 mM MgCl2, 0.5 mM EDTA, 10 μg/mL BSA, 0.1 mM DTT, 0.01% Tween-20) and mixed with serial dilutions of peptides 1–6 (25 μM—6.1 nm), that were generated with the Echo 520 liquid handler (Labcyte Inc.), in a total volume of 10.2 μL per well in black 384-well small volume microplates (Greiner Bio-One). The microplates were shaken at 1500 rpm for 30 s, centrifuged at 200 x g for 60 s and subsequently incubated for 60 min in a humidified, dark chamber at room temperature. Finally, the fluorescence polarization was analyzed on an Infinite® M1000 microplate reader (Tecan) using the appropriate settings for fluorescein/6FAM, i.e. an excitation wavelength of 470 ± 2.5 nm and an emission wavelength of 520 ± 7.5 nm.
Each concentration was analyzed in quadruplicates and resulting mean fluorescence polarization and standard deviation was fit to a four parameter logistic model with Origin (OriginLab, Northampton, MA) using the following equation: y=A1−A2/1+x/x0^p+A2
Each experiment was performed in three independent replicates.
Figure S5. Fluorescence polarization binding studies of stapled peptides 1-6 towards target DNA sequence MARE23 (5’-[6FAM][…]-3’ and 5’-[…]-3’) (A, C) and control DNA sequence MARE23_scrambled (5’-[6FAM][…]-3’ and 5’-GAGTAA-TAGCTATGACGATATTCCG-3’) (B and D, respectively). The obtained polarization values were either baseline-corrected (A, B) or corrected for the changes in fluorescence intensity in the free/bound state of the fluorescently labeled dsDNA probes (C, D).^[1] The resulting dissociation constants are listed in the inset tables in the respective panels. […]

[3] = tested on: dsDNA probe (MARE23, MARE23_scrambled, randomized sequence); test: Electrophoretic mobility shift assay; type: binding; conditions: 1 pmol dsDNA probe with excess of peptide, 30 min at room temperature, native 15% TBE polyacrylamide gel
Method: DNA hybridization was performed as described above. Afterwards, 1 pmol of the dsDNA probe was incubated with the respective excess of peptide in 1X assay buffer (10 mM Tris pH 7.5, 100 mM KCl, 2 mM MgCl2, 0.5 mM EDTA, 10 μg/mL BSA, 0.1 mM DTT, 2.5% glycerol) in a final volume of 10 μL and incubated for 30 min at room temperature. Prior to gel electrophoresis, samples were mixed with 2 μL of 6X loading buffer (60 mM Tris pH 7.5, 15% Ficoll 400) and the reaction mixtures were then loaded onto hand-cast, native 15% TBE polyacrylamide gels. Separation was performed for 45 min at a current of 20 mA per gel in a cold room at 4°C and the gels were analyzed on a Typhoon FLA 9500 laser scanner (GE Healthcare) using the 473 nm laser for excitation and a 510 nm long-pass filter (LPB (510LP)) for emission of fluorescein and FAM, respectively.
[picture] Figure S6. Electrophoretic mobility shift assays of peptides 4 and 5 with MARE23 (5’-[6FAM][…]-3’ and 5’-[…]-TTCCG-3’).
Figure S7. Electrophoretic mobility shift assays of peptides 4 and 5 with MARE23_scrambled (5’-[6FAM][…]-3’ and 5’-[…]-TTCCG-3’).
Figure S8. Electrophoretic mobility shift assays of peptides 4 and 5 with DNA with a randomized sequence (5’-[6FAM][…]-3’ and 5’-GAG-[…]-3’).

[4] = target: peptide 1 (stapled Nrf2-derived) (UniProt Q16236); test: fluorescence polarization; conditions: FP: 50 mM Tris/HCl pH 7.5, 100 mM NaCl, 2 mM MgCl2, 0.5 mM EDTA, 10 ug/mL BSA, 0.1 mM DTT, 0.01% Tween-20, 10 nM DNA, 60 min RT; EMSA: 10 mM Tris pH 7.5, 100 mM
[5] = target: peptide 2 (stapled Nrf2-derived) (UniProt Q16236); test: fluorescence polarization; conditions: FP: 50 mM Tris/HCl pH 7.5, 100 mM NaCl, 2 mM MgCl2, 0.5 mM EDTA, 10 ug/mL BSA, 0.1 mM DTT, 0.01% Tween-20, 10 nM DNA, 60 min RT; EMSA: 10 mM Tris pH 7.5, 100 mM
[6] = target: peptide 3 (stapled Nrf2-derived) (UniProt Q16236); test: fluorescence polarization; conditions: FP: 50 mM Tris/HCl pH 7.5, 100 mM NaCl, 2 mM MgCl2, 0.5 mM EDTA, 10 ug/mL BSA, 0.1 mM DTT, 0.01% Tween-20, 10 nM DNA, 60 min RT; EMSA: 10 mM Tris pH 7.5, 100 mM
[7] = target: peptide 4 (stapled Nrf2-derived) (UniProt Q16236); test: fluorescence polarization; conditions: FP: 50 mM Tris/HCl pH 7.5, 100 mM NaCl, 2 mM MgCl2, 0.5 mM EDTA, 10 ug/mL BSA, 0.1 mM DTT, 0.01% Tween-20, 10 nM DNA, 60 min RT; EMSA: 10 mM Tris pH 7.5, 100 mM
[8] = target: peptide 5 (linear Nrf2-derived) (UniProt Q16236); test: fluorescence polarization; conditions: FP: 50 mM Tris/HCl pH 7.5, 100 mM NaCl, 2 mM MgCl2, 0.5 mM EDTA, 10 ug/mL BSA, 0.1 mM DTT, 0.01% Tween-20, 10 nM DNA, 60 min RT; EMSA: 10 mM Tris pH 7.5, 100 mM
peptide 6 (scrambled) = test: fluorescence polarization; conditions: FP: 50 mM Tris/HCl pH 7.5, 100 mM NaCl, 2 mM MgCl2, 0.5 mM EDTA, 10 ug/mL BSA, 0.1 mM DTT, 0.01% Tween-20, 10 nM DNA, 60 min RT; EMSA: 10 mM Tris pH 7.5, 100 mM
[9] = tested on: cellular DNA in fixed, permeabilized HeLa cells; test: Incubation with fixed, permeabilized HeLa cells, wide-field fluorescence microscopy; type: cell-based; conditions: FITC-labeled peptide
Method: as §1
For fixing and permeabilization, HeLa cells were incubated with pre-warmed 4% formaldehyde for 20 min at 37°C, followed by permeabilization with 0.25% Triton-X 100 for 20 min at room temperature. For the evaluation of the effect of proteases, cOmplete protease inhibitor mix (1X) 500 μl was added to the fixed cells for 30 min. Peptides were incubated at 1 μM for 3 h in the presence of the protease inhibitor mix, followed by 3 min incubation with 1 μM of the nucleic acid marker DAPI, then extensively washed with DPBS and subjected to wide-field imaging.
as §2

Compound: CC[C@H](C)[C@H](NC(=O)CCCNC(=S)Nc1ccc2c(c1)C(=O)OC21c2ccc(O)cc2Oc2cc(O)ccc21)C(=O)N[C@@H](CCCNC(=N)N)C(=O)N[C@@H](CCCNC(=N)N)C(=O)N[C@@H](CCCNC(=N)N)C(=O)N[C@]1(C)CCCCCCC=CCCC[C@@](C)(C(=O)N[C@@H](CC(N)=O)C(=O)N[C@@H](CS)C(=O)N[C@@H](CCCNC(=N)N)C(=O)N[C@@H](CCCCN)C(=O)N[C@@H](CCCNC(=N)N)C(=O)N[C@@H](CCCCN)C(N)=O)NC(=O)[C@H](C)NC(=O)[C@H](C)NC(=O)[C@H](C(C)C)NC(=O)[C@H](CCCCN)NC(=O)[C@H](CC(N)=O)NC(=O)[C@H](CCCCN)NC1=O [FITC-4] ({FITC-GABA}-IRRR[R8]KNKVAA[S5]NCRKRK-NH2; staple 5-12)
- membrane permeability in living cells (living HeLa cells; 10 μM peptide in DPBS + Mg/Ca, 5 min, serum-free, washed, FITC fluorescence microscopy): high membrane permeability in living cells
- viability / membrane integrity of peptide-containing cells (propidium iodide) (living HeLa cells; 10 μM peptide, 0.5 μM propidium iodide in imaging medium): majority of peptide-containing cells were alive

- Helicity (calculated) / α-helical content [1]: 36%
- Kd [2]: 1500 ± 200 nM
Compound: CC[C@H](C)[C@H](NC(C)=O)C(=O)N[C@@H](CCCNC(=N)N)C(=O)N[C@@H](CCCNC(=N)N)C(=O)N[C@@H](CCCNC(=N)N)C(=O)NCC(=O)N[C@@H](CCCCN)C(=O)N[C@@H](CC(N)=O)C(=O)N[C@@H](CCCCN)C(=O)N[C@]1(C)CCCC=CCCC[C@@](C)(C(=O)N[C@@H](CC(N)=O)C(=O)N[C@@H](CS)C(=O)N[C@@H](CCCNC(=N)N)C(=O)N[C@@H](CCCCN)C(=O)N[C@@H](CCCNC(=N)N)C(=O)N[C@@H](CCCCN)C(N)=O)NC(=O)[C@H](C)NC(=O)[C@H](C)NC1=O [compound 3] (Ac-IRRRGKNK[R5]AA[S5]NCRKRK-NH2; staple 9-12)

- Helicity (calculated) / α-helical content [1]: 18%
- Kd [2]: 1200 ± 300 nM
Compound: CC[C@H](C)[C@H](NC(C)=O)C(=O)N[C@@H](CCCNC(=N)N)C(=O)N[C@@H](CCCNC(=N)N)C(=O)N[C@@H](CCCNC(=N)N)C(=O)N[C@]1(C)CCCCCCC=CCCC[C@@](C)(C(=O)N[C@@H](CC(N)=O)C(=O)N[C@@H](CS)C(=O)N[C@@H](CCCNC(=N)N)C(=O)N[C@@H](CCCCN)C(=O)N[C@@H](CCCNC(=N)N)C(=O)N[C@@H](CCCCN)C(N)=O)NC(=O)[C@H](C)NC(=O)[C@H](C)NC(=O)[C@H](C(C)C)NC(=O)[C@H](CCCCN)NC(=O)[C@H](CC(N)=O)NC(=O)[C@H](CCCCN)NC1=O [compound 4] (Ac-IRRR[R8]KNKVAA[S5]NCRKRK-NH2; staple 5-12)
- mobility shift of DNA [3]: induce a mobility shift of DNA at a lower concentration than the unstapled peptide 5

Compound: CGGAATCAATGACTCATTGTTACTC (double strand) [MARE23]
- Kd [4]: 1600 nM
- Kd [5]: 3900 nM
- Kd [6]: 1500 nM
- Kd [7]: 1200 nM
- Kd [8]: 7900 nM
- Kd (peptide 6 (scrambled)): 8100 nM

Compound: IRRRGKNKVAAQNCRKRK [FITC-5, linear peptide 5 with N-terminal FITC-GABA- label]
- enrichment in the nucleus ([9]; fixed (4% formaldehyde) and permeabilized (0.25% Triton-X 100) HeLa cells, DAPI co-stain): no enrichment in the nucleus could be observed
- amount of peptide detectable in cells ([9]; fixed and permeabilized HeLa cells, identical exposure times): only small amounts

- Helicity (calculated) / α-helical content [1]: 20%
- Kd [2]: 1600 ± 40 nM
Compound: IRRRS5KNKS5AAQNCRKRK (sidechain bridge or staple) [compound 1, Nrf2-derived i,i+4 hydrocarbon stapled peptide (505/509), N-terminally acetylated, C-terminal amide]
